Measured values: patent US20040151618A1, “Method of increasing the conductivity of water and uses therefor” (priority 2002, published 2004)

How the values were obtained:
[1] = Electrical conductivity of tap water with varying concentrations of sodium benzoate; type: physicochemical; conditions: 10% sodium benzoate plus ingredient that improves adhesion
Description: Tests were conducted to measure the electrical conductivity of tap water with varying concentrations of sodium benzoate. In these tests the conductivity has been measured in micromho/cm. One micromho/cm (UMHO/CM) equals one microsiemens/cm (US/CM). In other words a micromho is the same as a microsiemen.
In preparing a 1% solution of applicants solution 37.84 grams of sodium benzoate were dissolved in one gallon of tap water which weighs 3,784 grams. […] The conductivity of the various samples of applicant's invention that were subjected to these tests had conductivities ranging from 635 to 34,500 UMHO/CM. […] For solutions of other strengths, proportional amounts of sodium benzoate were added to a gallon of water. This invention is concerned with concentrations of sodium benzoate in the range of about 0.1% and greater. The current test results have been limited to a maximum concentration of about 10%.

[2] = Iron count of applicant after daily drinking of the solution; type: in vivo, human; conditions: daily drinking of 0.1% solution blended in fruit juice
Description: Furthermore, as a result of the higher conductivity of the sodium benzoate solution its electrical resistance is reduced which stabilizes organic colors and prevents their reversion. […] Also, in the pulp and paper industry the brightness of pulp is enhanced which is a result of applicant's solution impeding the deposition of iron. Also, impeding the iron content in drinking water can help to prevent an iron overload problem in humans and animals. Iron overload can result in cellular degradation that is similar to the rusting of a nail. Applicant's sodium benzoate solution can be used to prevent oxygen free radical degradation in humans and animals. Excess iron in human is very dangerous. Human consumption of applicant's solution could prevent hemochromatosis and the need for phlebotomy.

[3] = tested on: psychrotrophic microorganisms; assay: Count of psychrotrophic microorganisms in minced cod fish fillets stored at 1-2° C. (Plate Count Agar, pour-plate); type: cell-based; parameters: Count of psychrotrophic microorganisms in sample with 0.1% Sodium Benzoate solution: unit not given here; conditions: for Count of psychrotrophic microorganisms in sample with 1% Sodium Benzoate solution: Example 11; for Count of psychrotrophic microorganisms in sample with 0.1% Sodium Benzoate solution: Example 12
Description: Cod fish fillets which were frozen at sea were thawed and minced. The minced fillets were divided into two 200 gram portions. To one portion, 20 milliliters of sterile, deionized water was added (10%) and to the other 20 milliliters of the sodium benzoate solution of this invention containing 1% benzoate was added. Both portions were stirred and then placed at 1-2° C. for storage. Samples were taken 2 hours, 7 days and 14 days after mixing. Counts of psychrothrophic microorganisms was done on Plate Count Agar with 0.5% NaCl added by the pour-plate technique. Plated were incubated at 22° C. for 3 days prior to counting colonies. When a nutrient agar-type medium is incubated, using the streak-plate or pour-plate method, cells are individually separated. In incubation, individual cells reproduce rapidly to generate a visible colony of cells, each colony being a pure sample of a single kind of microorganism.
In the above example, a 1% sodium benzoate solution was used, which is considered to be a stronger than acceptable for a food product, and thus a further tests were performed. In these second tests cod fish fillets which were frozen at sea were thawed and minced. The minced fillets were divided into two 200 gram portions. To one portion, 2 milliliters of sterile, deionized water was added and to the other […] of the sodium benzoate solution of this invention containing 0.1% benzoate was added. As a result in this test the other portion contained only 10% of the amount of benzoate as was in EXAMPLE 11. In other words EXAMPLE 11 was a 1% sodium benzoate solution and EXAMPLE 12 is a 0.1% sodium benzoate solution. Both portions were stirred and then placed at 1-2° C. for storage. Samples were taken 2 hours, 7 days, 14 days and 18 after mixing. Counts of psychrothrophic microorganisms was done on Plate Count Agar with 0.5% NaCI added by the pour-plate technique. Plated were incubated at 22° C. for 3 days prior to counting colonies.

mold [4] = assay: Mold in opened cranberry-raspberry drink (Example 6); type: cell-based; conditions: drink with about 1.9% sodium benzoate, three weeks
Description: A commercially available 16 ounce bottle of cranberry-raspberry drink was opened and one ounce of water having a 30% concentrations of sodium benzoate was added to the contents of the bottle. The resulting cranberry-raspberry drink thus had about a 1.9% concentration of sodium benzoate. A second bottle of the same commercially available drink was opened but not treated in any way.

grass = assay: Plant growth retarder: patch of grass sprayed (Example 9); type: in vivo; conditions: sprayed with water with 10% by weight sodium benzoate, 24 hours
Description: A patch of grass about two feet in diameter was sprayed with water having a 10% concentration by weight of sodium benzoate . At the time that the water having the 10% concentration of sodium benzoate was sprayed on this patch of grass the sprayed patch as well as the surrounding grass areas were green and healthy looking.

mold [5] = assay: Mold on dry dog food sprayed with solution (Example 4); type: cell-based; conditions: dry dog food sprayed with water with 1% sodium benzoate, three months
[6] = tested on: large potted plants having green leaves and red flowers; assay: Plant growth retarder: large potted plants watered (Example 10); type: in vivo; conditions: watered with water with 10% by weight sodium benzoate
Description: Three large potted plants having green leaves and red flowers, each plant was about 3 feet tall, were utilized for this EXAMPLE. The three plants were aligned adjacent to each other in a sunny area. The large potted plant to the left was watered with tap water and the plants in the center and to the right were watered with water having a 10% concentration by weight of sodium benzoate. Two days after watering these three large potted plants, the plant to the left retained its green leaves and red flowers. However, the large plant in the center and the one to the right had undergone change. […] Four days after watering the plants the large plant in the center and the one to the right had undergone further change. […] The plant to the left retained its green leaves and red flowers.

mold [7] = assay: Mold and odor on treated wet lap pulp (Example 5); type: cell-based; conditions: wet lap pulp treated with water with 1% sodium benzoate, almost a year
Description: A like portion of wet lap pulp from the same batch as the above wet lap pulp was not treated (wet lap pulp is moist and contains tap water) but was isolated for observation and comparison.

[8] = tested on: growing plant having green leaves and small white flowers; assay: Plant growth retarder: isolated growing plant sprayed (Example 7); type: in vivo; conditions: sprayed with water with 10% sodium benzoate, after six hours
Description: A growing plant having green leaves and small white flowers was isolated from other plants of the same type. the isolated plant was sprayed with water having a 10% concentration of sodium benzoate. The other plants were not treated.

[9] = tested on: potted plants each having green leaves and violet colored flowers; assay: Plant growth retarder: potted plant watered (Example 8); type: in vivo; conditions: watered with water with 10% sodium benzoate, after three days
Description: Two similar potted plants each having green leaves and violet colored flowers were obtained for this example. One of the potted plants was watered with tap water and at the same time the other potted plant was watered with water that contained a 10% concentration of sodium benzoate.

mold [10] = assay: Mold on cornstarch immersed in solution (Example 3); type: cell-based; conditions: cornstarch in water with 1% sodium benzoate, four weeks
[11] = 0 days at 1-2° Centigrade (sample 2 hours after mixing)

O=C([O-])c1ccccc1.[Na+] [Sodium Benzoate, sodium benzoate]
Conductivity of 10% solution with coating additive compared with 10% solution without [1]: substantially the same | Iron count [2]: reduced to normal levels | Shelf life of fresh seafood maintained at 1-2° C. ([3]; 0.1% sodium benzoate solution): at least 14 days | Shelf life of fresh seafood maintained at 1-2° C. ([3]; 1% sodium benzoate solution): at least 14 days | Count of psychrotrophic microorganisms in sample with 1% Sodium Benzoate solution [3, 11]: 5 | Count of psychrotrophic microorganisms in sample with 1% Sodium Benzoate solution ([3]; 7 days at 1-2° Centigrade): 4.8 | Count of psychrotrophic microorganisms in sample with 1% Sodium Benzoate solution ([3]; 14 days at 1-2° Centigrade): 5.2 | Count of psychrotrophic microorganisms in sample with 0.1% Sodium Benzoate solution [3, 11]: 4.21 | Count of psychrotrophic microorganisms in sample with 0.1% Sodium Benzoate solution ([3]; 7 days at 1-2° Centigrade): 4.79 | Count of psychrotrophic microorganisms in sample with 0.1% Sodium Benzoate solution ([3]; 14 days at 1-2° Centigrade): 6.17 | Count of psychrotrophic microorganisms in sample with 0.1% Sodium Benzoate solution ([3]; 18 days at 1-2° Centigrade): 8.09 | No Mold (mold [4]): no evidence of mold | Growth Stunned (grass): appeared straw like and there was no longer any green appearing | No Mold (mold [5]): no evidence of mold | Growth Stunned ([6]; four days after watering): remains of the flowers were now brown and only a few brown leaves remained on the branches | Appearance of plants ([6]; two days after watering): flowers were no longer red and instead appeared pink and white and the leaves were drooping and were a much lighter shade of green | No Mold (mold [7]): no evidence of mold or odor | Growth Stunned [8]: shriveled and dried up | Growth Stunned [9]: weathered and dried up | No Mold (mold [10]): no evidence of mold
